Test results: PMC6615261, “Repurposing Azithromycin and Rifampicin Against Gram-Negative Pathogens by Combination With Peptidomimetics” (Frontiers in Cellular and Infection Microbiology, 2019)
Like-named read-outs stand apart in the source and are kept apart here.

Assays:
E. coli ST131 [1] = test: Potentiation of additional antibiotics (COMPAN1F plates), MIC; assay type: cell-based, Escherichia coli
Protocol: (§1) Minimal inhibitory concentrations (MICs) of peptidomimetics, antibiotics and their combinations were determined by broth microdilution according to the Clinical Laboratory Standards Institute performance standards (Clinical and Laboratory Standards Institute, [2013]). […] Since rifampicin and azithromycin mainly are used to treat infections with Gram-positive pathogens only CLSI clinical breakpoints were available for such bacteria. […] Potentiation of additional antibiotics by peptidomimetics was determined by using commercial 96-well plates containing varied concentrations of standard antibiotics (COMPAN1F; Trek Diagnostic Systems Inc.). The peptidomimetics were added immediately prior to inoculation with pathogen, and then MICs were determined as above. The MICs of peptidomimetic/antibiotic combinations were determined according to the method above, and the concentration ratios were selected based upon checkerboard results with 2:1 and 1:4 ratio of peptidomimetic with rifampicin or azithromycin, respectively. Minimal bactericidal concentrations (MBCs) were determined by using growth-curve assay plates. MIC plates were prepared as above, and then the plates were incubated at 37°C with continuous shaking. Growth was recorded at 10 min intervals as optical density (OD) at 600 nm during 24 h. At 24 h, for wells without growth, a sample was diluted 10-fold in sterile saline (0.9% sodium chloride) and plated onto MHA, following CLSI guidelines (Clinical and Laboratory Standards Institute, [1999]).

K. pneumoniae ST258 [2] = test: as above; assay type: cell-based, Klebsiella pneumoniae
Protocol: as §1

K. pneumoniae ST258 [3] = system: K. pneumoniae ST258
Protocol: (§2) The potential synergistic effects in peptidomimetic-antibiotic combinations were assessed by using a two-dimensional checkerboard assay (Garcia, [2010]). Briefly, twofold dilutions of peptide and antibiotic were prepared in MBH II media along the X- and Y-axis, respectively, in 96-well plates. The inoculum was added to the plates, and subsequently these were incubated for 18–20 h. All steps for inoculum preparation and broth microdilution were in accordance with the CLSI guidelines (Clinical and Laboratory Standards Institute, [2013]). The fractional inhibitory concentration index (FICI) was calculated as [MICA(A+B)/MICA(alone)] + [MICB(A+B)/MICB(alone)], where MICA(A+B) represents the MIC of antibiotic (A) in combination with peptidomimetic (B), while MICB(A+B) represents the MIC of peptidomimetic (B) in combination with antibiotic (A). MICA(alone) and MICB(alone) represent the MIC of each compound individually. FICI values of ≤0.5 were interpreted as synergy.

E. coli ST131 [4] = test: MIC by broth microdilution; assay type: cell-based, Escherichia coli; conditions: peptidomimetic alone
Protocol: as §1

P. aeruginosa ATCC 27853 [5] = test: MIC by broth microdilution; assay type: cell-based, Pseudomonas aeruginosa; conditions: peptidomimetic alone
Protocol: as §1

NIH 3T3 and HepG2 cells = test: Effect on viability of mammalian cells (both cell lines); assay type: cell-based, mouse and human
Protocol: (§3) NIH 3T3 and HepG2 cells (both from ATCC, Manassas, VA, USA) were cultured in flat-bottomed 96-well MicroWell™ plates (NUNC, Roskilde, Denmark) at seeding densities of ~23,000 and ~22,000 cells/well, respectively, and then cultured for 22–24 h under standard culturing conditions (37°C, 5% CO2, humidified air) to reach 80–90% confluence. NIH 3T3 were cultured in Dulbecco's modified Eagle's medium (DMEM) supplemented with 10% (v/v) newborn-calf serum (NCS) (Gibco, Paisly, UK), while HepG2 were cultured in Eagle's minimum essential medium (EMEM) supplemented with 10% (v/v) fetal bovine serum (FBS, Gibco, Paisly, UK), sodium pyruvate (1 mM), and non-essential amino acids (1%, v/v). Both culturing media were further supplemented with penicillin (100 U/mL), streptomycin (100 μg/mL), and L-glutamine (2 mM).
(§4) Effect on cell viability was determined in NIH 3T3 fibroblasts and HepG2 hepatocytes by using the MTS/PMS assay measuring metabolic activity. Briefly, the adhered cells were washed with 37°C Hanks' balanced salt solution (HBSS from Sigma-Aldrich, St. Louis, MO, USA), containing 10 mM HEPES (AppliChem, Darmstadt, Germany), and adjusted to pH 7.4, and were then exposed for 1 h to 100 μL of test compound(s) dissolved in the appropriate culturing medium without serum for each cell line. After exposure the cells were washed with HBSS containing 10 mM HEPES (pH 7.4) and 100 μL of an MTS/PMS solution, consisting of 240 μg/mL MTS (Promega, Madison, WI, USA) and 2.4 μg/mL PMS (SigmaAldrich, Buchs, Switzerland) in HBSS, was added to the cells, which then were incubated for 1 h at 37°C with horizontal shaking under light protection. Absorbance was measured at 492 nm by using a POLARstar OPTIMA plate reader (BMG Labtech, Offenburg, Germany). The relative viability was calculated according to Equation (1) with absorbance values obtained after incubation of cells with test compound; incubation with SDS (0.2%, w/v in medium) defined 100% cell death (Abspos), while the absorbance of cells incubated with medium defined 0% cell death (Absneg).
(§5) (1) Relative viability(%)=(Abssample-Abspos)/(Absneg-Abspos)×100%
(§6) EC50 values were calculated by using GraphPad Prism 7 (GraphPad Software, La Jolla, CA, USA) via fitting of the relative cell viability to the concentration of the test compound by using Equation (2):
(§7) (2) Relative viability(%)= Top-Bottom/1+10^(LogIC50-Log[peptidomimetic]) ×Hill slope
With top and bottom representing the mean highest and lowest observed values, respectively. The Hill slope represents a factor for the steepness of the linear part of the curve. […] The selectivity index was calculated as the average effect on cell viability (EC50 values for HepG2 and NIH 3T3 cells) divided by the MIC.

MDR E. coli ST131 = test: Screening of peptidomimetic-antibiotic combinations (growth / growth inhibition); assay type: cell-based, Escherichia coli; set-up: key to Growth in combination with RIF / Growth in combination with AZM: Growth (+); growth inhibition (–)
Protocol: as §1

K. pneumoniae ST258 [6] = test: MIC by broth microdilution; assay type: cell-based, Klebsiella pneumoniae
Protocol: as §1

E. coli ST131 [7] = system: E. coli ST131
Protocol: as §2

P. aeruginosa ATCC 27853 [8] = system: P. aeruginosa ATCC 27853
Protocol: as §2

K. pneumoniae ST258 [9] = test: Screening of peptidomimetic-antibiotic combinations (growth / growth inhibition); assay type: cell-based, Klebsiella pneumoniae; set-up: key to Growth in combination with RIF / Growth in combination with AZM: Growth (+); growth inhibition (–)
Protocol: as §1

[10] = MTS/PMS cell viability assay; assay type: cell-based, mouse; conditions: mouse, NIH 3T3 fibroblasts, 1 h exposure, read-out: Cytotoxicity NIH 3T3 EC50 ± SD
Protocol: as §3, §4, §5, §6, §7
(§8) With top and bottom representing the mean highest and lowest observed values, respectively. The Hill slope represents a factor for the steepness of the linear part of the curve. In order to prevent erroneous calculation, the top and bottom values were constrained to 100 and 0%, respectively. Data were collected from technical triplicates. The selectivity index was calculated as the average effect on cell viability (EC50 values for HepG2 and NIH 3T3 cells) divided by the MIC.

[11] = MTS/PMS cell viability assay; assay type: cell-based; conditions: human, HepG2 hepatocytes, 1 h exposure, read-out: Cytotoxicity HepG2 EC50 ± SD
Protocol: as §3, §4, §5, §6, §7, §8

[12] = 0.5 μM peptidomimetic + 0.5 μg/mL rifampicin
[13] = peptidomimetic 0.5 μM + azithromycin 1 μg/mL
[14] = peptidomimetic 0.5 μM + rifampicin 0.5 μg/mL
[15] = MIC of azithromycin combined with the labelled peptidomimetic
[16] = MIC of rifampicin combined with the labelled peptidomimetic

CCC[C@@H]1C[C@@H](C(=O)N[C@@H]([C@H]2O[C@H](SC)[C@H](O)[C@@H](O)[C@H]2O)[C@H](C)Cl)N(C)C1 [Clindamycin]
MIC of antibiotic in presence of peptidomimetic 26 (E. coli ST131 [1]; + 0.25 μM peptidomimetic 26): >4 µg/mL
MIC of antibiotic in presence of peptidomimetic 1 (E. coli ST131 [1]; + 0.5 μM peptidomimetic 1): 4 µg/mL
MIC of antibiotic in presence of peptidomimetic 15 (E. coli ST131 [1]; + 0.5 μM peptidomimetic 15): >4 µg/mL
MIC (E. coli ST131 [1]; Escherichia coli, no peptidomimetic, read-out: MIC of antibiotic alone): > 4 µg/mL
MIC of antibiotic in presence of peptidomimetic 1 (K. pneumoniae ST258 [2]; + 1 μM peptidomimetic 1): >4 µg/mL
MIC of antibiotic in presence of peptidomimetic 15 (K. pneumoniae ST258 [2]; + 1 μM peptidomimetic 15): >4 µg/mL
MIC of antibiotic in presence of peptidomimetic 26 (K. pneumoniae ST258 [2]; + 1 μM peptidomimetic 26): 2 µg/mL
MIC (K. pneumoniae ST258 [2]; Klebsiella pneumoniae, no peptidomimetic, read-out: MIC of antibiotic alone): > 4 µg/mL
MIC of antibiotic alone (K. pneumoniae ST258 [2]; no peptidomimetic): >4 µg/mL
Antibiotic MIC alone (K. pneumoniae ST258 [3]; checkerboard): 125 µg/mL

CC(=O)N[C@@H](CCCCN)C(=O)N(CCC(=O)N[C@@H](CCCCN)C(=O)N(CCC(=O)N[C@@H](CCCCN)C(=O)N(CCC(=O)N[C@@H](CCCCN)C(=O)N(CCC(=O)N[C@@H](CCCCN)C(=O)N(CCC(=O)N[C@@H](CCCCN)C(=O)N(CCC(=O)N[C@@H](CCCCN)C(=O)N(CCC(=O)N[C@@H](CCCCN)C(=O)N(CCC(N)=O)Cc1ccccc1)Cc1ccccc1)Cc1ccccc1)Cc1ccccc1)Cc1ccccc1)Cc1ccccc1)Cc1ccccc1)Cc1ccccc1 [Peptidomimetic 15, Ac-(Lys-βNPhe)8-NH2]
MIC E. coli ST131 (E. coli ST131 [4]): 1 µM
MIC P. aeruginosa ATCC 27853 (P. aeruginosa ATCC 27853 [5]): 1 µM
EC50 (NIH 3T3 and HepG2 cells): > 100 µM
Screening result with rifampicin (MDR E. coli ST131; [12]): inhibit growth
Growth in combination with AZM (MDR E. coli ST131; [13]): –
Growth in combination with RIF (MDR E. coli ST131; [14]): –
Selectivity Index (SI) K. pneumoniae ST258 (K. pneumoniae ST258 [6]; average of EC50 (HepG2, NIH 3T3) divided by MIC): (5)
MIC K. pneumoniae ST258 (K. pneumoniae ST258 [6]; peptidomimetic alone): 32 µM
Antibiotic MIC in combination (AZM) (E. coli ST131 [7]; [15]): 1 µg/mL
Antibiotic MIC in combination (RIF) (E. coli ST131 [7]; [16]): 0.5 µg/mL
Peptidomimetic MIC alone (E. coli ST131 [7]; checkerboard): 1 µM
Peptidomimetic MIC in combination (E. coli ST131 [7]; combined with AZM): 0.13 µM
Peptidomimetic MIC in combination (E. coli ST131 [7]; combined with RIF): 0.13 µM
Antibiotic MIC in combination (RIF) (P. aeruginosa ATCC 27853 [8]; P. aeruginosa ATCC 27853, MIC of rifampicin combined with the labelled peptidomimetic): 0.5 µg/mL
Peptidomimetic MIC alone (P. aeruginosa ATCC 27853 [8]; P. aeruginosa ATCC 27853, checkerboard): 1 µM
Peptidomimetic MIC in combination (P. aeruginosa ATCC 27853 [8]; P. aeruginosa ATCC 27853, combined with AZM): 0.5 µM
Peptidomimetic MIC in combination (P. aeruginosa ATCC 27853 [8]; P. aeruginosa ATCC 27853, combined with RIF): 0.5 µM
Reduction of the MIC of azithromycin (P. aeruginosa ATCC 27853 [8]; P. aeruginosa, sub-MIC concentrations of peptidomimetic): 32- to 512 fold
Antibiotic MIC in combination (AZM) (K. pneumoniae ST258 [3]; [15]): 8 µg/mL
Antibiotic MIC in combination (RIF) (K. pneumoniae ST258 [3]; [16]): 0.5 µg/mL
Peptidomimetic MIC alone (K. pneumoniae ST258 [3]; checkerboard): 32 µM
Peptidomimetic MIC in combination (K. pneumoniae ST258 [3]; combined with AZM): 0.5 µM
Peptidomimetic MIC in combination (K. pneumoniae ST258 [3]; combined with RIF): 0.5 µM
Screening result with rifampicin (K. pneumoniae ST258 [9]; [12]): inhibit growth
Growth in combination with AZM (K. pneumoniae ST258 [9]; [13]): +
Growth in combination with RIF (K. pneumoniae ST258 [9]; [14]): –
EC50 at 1 h [10]: 217 ± 23.1 µM
EC50 at 1 h [11]: 121.37 ± 0.06 µM
